Data set [1] concerns EpiDerm-200-X reconstructed human epidermis (RhE).
The conditions of data set [2]: not measured for this paper; no reference given; cited from earlier work.
The subject of the next data set is excised human skin (EHS). To be noted: female, 0.61 nmol/μL.
Data set [3] deals with EpiDerm-200-X reconstructed human epidermis (RhE). The experiment in a line: In vitro permeation testing. To be noted: 5 mm orifice Franz cell, finite dose 6 nmol/cm^2.
For data set [4] the following is noted: 0.61 nmol/μL.

Data on three compounds can be found in article PMC10527924 (Toxicology in vitro : an international journal published in …, 2023).

Where two headings read alike, the source gives them in different places.

For the compound `O=C(O)c1ccccc1O` [salicylic acid], in data set [1], the “vehicle effect on 6 h cumulative permeation” value is listed as “did not alter its permeation”. Besides, the “6 h Cumulative Permeation” value in data set [1] (human, 0.61 nmol/μL) was 0.32 ± 0.05 nmol/cm^2; in the data set with excised human skin (EHS), 0.18 ± 0.10 nmol/cm^2. The “Log Kow (n-octanol-water partition coefficient)” value in data set [2] is given as 2.26.

Regarding `C[C@]12CC[C@H]3[C@@H](CCC4=CC(=O)CC[C@@]43C)[C@@H]1CC[C@@H]2O` [testosterone], the “time of mean peak flux” value in data set [3] was 2 h.

As for `Cn1c(=O)c2c(ncn2C)n(C)c1=O` [caffeine], the “time of peak flux” value in data set [4] amounted to 2 h. Further, the “6 h Cumulative Permeation” value in data set [4] (6 h) worked out at 0.43 ± 0.03 nmol/cm^2; in data set [1] (human, 0.61 nmol/μL) it was 3.32 ± 0.33 nmol/cm^2; with excised human skin (EHS) it was 0.97 ± 0.22 nmol/cm^2. Also, the “vehicle effect on 6 h cumulative permeation” value in data set [1] is “statistically significant decrease”. The “time of mean peak flux” value in data set [1] (human, 0.61 nmol/μL) is 3 h. For the same compound, the “Log Kow (n-octanol-water partition coefficient)” value in data set [2] is −0.07.
